Data on 14 molecules can be found in patent US20070054916A1, “Aryl nitrogen-containing bicyclic compounds and methods of use” (Amgen Inc., priority 2004, published 2007).

pIC50: −log10 of the molar value.

The target in one experiment is LCK KD GST (225-509) (Homo sapiens, UniProt P06239). As to the kind of experiment: LCK Homogenous Time Resolved Flourescent (HTRF) kinase assay. The note with it: average IC50 value in the human HTRF assay for the inhibition of the Lck kinase enzyme. Background: In TR-FRET formats the signal depends on donor and acceptor labels being close together.
Sequence of LCK KD GST (225-509) (P06239 225-509): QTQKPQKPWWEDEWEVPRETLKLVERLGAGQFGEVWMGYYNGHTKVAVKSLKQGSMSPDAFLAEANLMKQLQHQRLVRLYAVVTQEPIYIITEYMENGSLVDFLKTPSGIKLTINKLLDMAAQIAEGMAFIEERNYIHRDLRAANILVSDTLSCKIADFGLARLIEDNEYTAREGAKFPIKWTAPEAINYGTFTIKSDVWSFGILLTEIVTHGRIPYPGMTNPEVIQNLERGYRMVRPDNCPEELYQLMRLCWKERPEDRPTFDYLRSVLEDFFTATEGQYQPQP
Regarding `Nc1ncnc2ccc(-c3cccc(NC(=O)c4cccc(C(F)(F)F)c4)c3)cc12` [Example 513, N-(3-(4-amino-6-quinazolinyl)phenyl)-3-(trifluoromethyl)benzamide], the pIC50 (in general, −log10 of the IC50, conventionally taken in molar units) is no less than 6.00.

As to `Cc1ccc(C(=O)NCCN(C)C)cc1-c1ccc2nc(N)ncc2c1` [Example 134, 3-(2-amino-6-quinazolinyl)-N-(2-(dimethylamino)ethyl)-4-methylbenzamide], the pIC50 is no less than 4.60.

`CC1(C)CC(=O)Nc2cc(NC(=O)c3cc(-c4ccc5nc(N)ncc5c4)ccc3F)ccc21` [Example 412] showed a pIC50 of no less than 6.00.

For `Cc1ccc(C(=O)Nc2cc(C(F)(F)F)ccc2N(C)C2CCN(C)C2)cc1-c1ccc2nc(N)ncc2c1` (stereo in doubt) [Example 238, 3-(2-amino-6-quinazolinyl)-4-methyl-N-(2-(methyl((3S)-1-methyl-3-pyrrolidinyl)amino-5-(trifluoromethyl)phenyl)berizamide], the pIC50 is no less than 6.00.

In turn, `COc1c(Br)cc(-c2ccc3nc(N)ncc3c2)cc1C(=O)Nc1cc(C(F)(F)F)ccc1N(C)CCCN(C)C` [Example 103, 5-(2-amino-6-quinazolinyl)-3-bromo-N-(2-((3-(dimethylamino)propyl)(methyl)amino)-5-(trifluoromethyl)phenyl)-2-(methyloxy)benzamide] showed a negative-log IC50 (pIC50) of no less than 6.00.

The molecule `Cc1ccc(C(=O)Nc2cc(C(F)(F)F)ccc2N(C)C)cc1-c1ccc2ncnc(N)c2c1` [Example 385, 3-(4-amino-6-quinazolinyl)-N-(2-(dimethylamino)-5-(trifluoromethyl)phenyl)-4-methylbenzamide] gave a negative-log IC50 (pIC50) of no less than 6.00.

For the molecule `Cc1ccc(C(=O)NC2CC2)cc1-c1ccc2nc(NCCN3CCCCC3)ncc2c1` [Example 47, N-cyclopropyl-4-methyl-3-(2-((2-(1-piperidinyl)ethyl)amino)-6-quinazolinyl) benzamide], the pIC50 was no less than 6.00.

For the molecule `Cc1ccc(C(=O)Nc2cc(Cl)ccc2N(C)CCCN(C)C)cc1-c1ccc2nc(N)ncc2c1` [Example 95, 3-(2-amino-6-quinazolinyl)-N-(5-chloro-2-((3-(dimethylamino)propyl)(methyl)amino)phenyl)-4-methylbenzamide], the pIC50 was no less than 6.00.

For another experiment, the system named is production of TNF by monocytes activated with bacterial lipopolysaccharide (LPS). As to the kind of experiment: Lipopolysaccharide-activated monocyte TNF production assay. In kind it is cell-based. Particulars: Homo sapiens, read-out: IC50 values in the monocyte assay (LPS induced TNF release). The gist of the method:
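Adherent human PBMC-derived monocytes (~70%) in DMEM/2% FCS were pre-incubated 60 min with nine two-fold compound dilutions, then stimulated with E. coli K532 LPS (added as 30 ng/ml solution) for 4 h at 37 °C. Supernatant TNF-α was measured by sandwich ELISA. IC50 was taken from a polynomial fit of TNF versus compound concentration.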
On to `Cc1ccc(C(=O)Nc2ccc(N3CCCC3)c(C(=O)N3CCCC3)c2F)cc1-c1ccc2nc(N)ncc2c1` [Example 428, 3-(2-amino-6-quinazolinyl)-N-(2-fluoro-4-(1-pyrrolidinyl)-3-(1-pyrrolidinylcarbonyl)phenyl)-4-methylbenzamide], for which the pIC50 is no less than 4.60.

Consider `Cc1ccc(C(=O)Nc2cc(C(F)(F)F)ccc2C(C)(C)CN(C)C)cc1-c1ccc2nc(N)ncc2c1` [Example 83, 3-(2-amino-6-quinazolinyl)-N-(2-(2-(dimethylamino)-1,1-dimethylethyl)-5-(trifluoromethyl)phenyl)-4-methylbenzamide], for which the pIC50 is no less than 4.60.

Take `CN(C)CCCN(C)c1c(Cl)cc(C(F)(F)F)cc1NC(=O)c1cc(-c2ccc3nc(N)ncc3c2)ccc1F` [Example 59, 5-(2-amino-6-quinazolinyl)-N-(3-chloro-2-((3-(dimethylamino)propyl)(methyl)amino)-5-(trifluoromethyl)phenyl)-2-fluorobenzamide]: the negative-log IC50 (pIC50) is no less than 4.60.

`Cc1ccc(C(=O)Nc2ccc(F)c(C(F)(F)F)c2)cc1-c1ccc2nc(N)ncc2c1` [Example 124, 3-(2-amino-6-quinazolinyl)-N-(4-fluoro-3-(trifluoromethyl)phenyl)-4-methylbenzamide]: the negative-log IC50 (pIC50) was no less than 4.60.

Regarding `CNc1ncc2cc(-c3cc(C(=O)Nc4ccc(Cl)c(C(F)(F)F)c4C)ccc3C)ccc2n1` [Example 3, N-(4-chloro-2-methyl-3-(trifluoromethyl)phenyl)-4-methyl-3-(2-(methylamino)-quinazolinyl)benzamide], the pIC50 was no less than 4.60.

In the case of `Cc1ccc(C(=O)Nc2ccc(NC(=O)NCCN3CCOCC3)c(C(F)(F)F)c2)cc1-c1ccc2nc(N)ncc2c1` [Example 4], the pIC50 is no less than 4.60.
